# Data taken from ChEMBL document CHEMBL3112524, “Rigid spiroethers targeting the decoding center of the bacterial ribosome” (Bioorg Med Chem, 2014).
# The source made the active and inactive calls. No cut-off for these calls is given here.
# Assays:
# Escherichia coli [1] = assay: Antibacterial activity against kanamycin-resistant Escherichia coli K-12 JW 3596-1 harboring rfaC733 deletion mutant assessed as growth inhibition after 18 hrs by geometric microdilution method; format: functional; conditions: K-12 JW 3596-1, 18 h
# Pseudomonas aeruginosa = assay: Antibacterial activity against Pseudomonas aeruginosa ATCC 27853 assessed as growth inhibition after 18 hrs by geometric microdilution method; format: functional
# Escherichia coli [2] = assay: Antibacterial activity against Escherichia coli ATCC 25922 assessed as growth inhibition after 18 hrs by geometric microdilution method; format: functional
# Staphylococcus aureus = assay: Antibacterial activity against Staphylococcus aureus ATCC 29213 assessed as growth inhibition after 18 hrs by geometric microdilution method; format: functional
# Escherichia coli [3] = assay: Antibacterial activity against kanamycin-resistant Escherichia coli K-12 JW 5503-1 harboring tolc732 deletion mutant assessed as growth inhibition after 18 hrs by geometric microdilution method; format: functional; conditions: K-12 JW 5503-1, 18 h
# Escherichia coli [4] = assay: Antibacterial activity against kanamycin-resistant Escherichia coli K-12 JW 0451-2 harboring acrB747 deletion mutant assessed as growth inhibition after 18 hrs by geometric microdilution method; format: functional; conditions: K-12 JW 0451-2, 18 h
# Bacterial 70S ribosome = assay: Binding affinity to Escherichia coli ribosome assessed as inhibition of transcription-translation activity preincubated for 30 mins followed by substrate addition measured after 5 mins by luciferase assay
# [5] = Binding affinity to 2AP-labelled duplex RNA (unknown origin) by fluorescence spectrophotometric analysis
smiles,measurement,setting,value
NC[C@@H]1O[C@H](O[C@H]2[C@@H](O)[C@H](O[C@@H]3[C@@H](O)[C@H](N)C[C@H](N)[C@H]3O[C@H]3O[C@H](CO)[C@@H](O)[C@H](O)[C@H]3N)O[C@@H]2CO)[C@H](N)[C@@H](O)[C@@H]1O [PAROMOMYCIN],MIC,Escherichia coli [1],113 µg/mL
same,MIC,"Pseudomonas aeruginosa; ATCC 27853, 18 h",113 µg/mL
same,MIC,"Escherichia coli [2]; ATCC 25922, 18 h",4 µg/mL
same,MIC,"Staphylococcus aureus; ATCC 29213, 18 h",4 µg/mL
same,MIC,Escherichia coli [3],113 µg/mL
same,MIC,Escherichia coli [4],113 µg/mL
N[C@@H](Cc1ccc(O)cc1)C(=O)N[C@@H]1C[C@H](N)[C@@]2(C[C@H](O)[C@H](O)CO2)[C@H](O)[C@H]1O,IC50,Bacterial 70S ribosome,> 600 µM
NCC[C@H](O)CN[C@@H]1C[C@H](N)[C@@]2(CC[C@H](O)[C@H](O)CO2)[C@H](O)[C@H]1O,IC50,Bacterial 70S ribosome,> 600 µM
same,EC50,[5],0.93 µM
NCCCC[C@H](N)CN[C@@H]1C[C@H](N)[C@@]2(C[C@H](O)[C@H](O)CO2)[C@H](O)[C@H]1O,IC50,Bacterial 70S ribosome,540 µM
same,EC50,[5],0.15 µM
N[C@@H]1C[C@H](N)[C@@]2(CC[C@H](O)[C@H](O)CO2)[C@H](O)[C@H]1O,EC50,[5],74 µM
NCC[C@H](O)C(=O)N[C@@H]1C[C@H](N)[C@@]2(CC[C@H](O)[C@H](O)CO2)[C@H](O)[C@H]1O,EC50,[5],6.9 µM
NCCCC[C@H](N)C(=O)NC[C@@H]1CC[C@@]2(O1)[C@H](O)[C@@H](O)[C@H](N)C[C@@H]2N,IC50,Bacterial 70S ribosome,325 µM
same,EC50,[5],1.4 µM
same,MIC,Escherichia coli [1],112 µg/mL
same,MIC,"Pseudomonas aeruginosa; ATCC 27853, 18 h",> 112 µg/mL
same,MIC,"Escherichia coli [2]; ATCC 25922, 18 h",> 112 µg/mL
same,MIC,"Staphylococcus aureus; ATCC 29213, 18 h",7.2 µg/mL
same,MIC,Escherichia coli [3],> 112 µg/mL
same,MIC,Escherichia coli [4],> 112 µg/mL
N[C@@H](Cc1ccc(O)cc1)C(=O)N[C@@H]1C[C@H](N)[C@@]2(CC[C@H](O)[C@H](O)CO2)[C@H](O)[C@H]1O,IC50,Bacterial 70S ribosome,450 µM
N[C@@H](Cc1ccc(O)cc1)C(=O)N[C@@H]1C[C@H](N)[C@@]2(CC[C@@H](O)[C@@H](O)CO2)[C@H](O)[C@H]1O,IC50,Bacterial 70S ribosome,> 600 µM
NCCCC[C@H](N)C(=O)N[C@@H]1C[C@H](N)[C@@]2(CC[C@H](O)[C@H](O)CO2)[C@H](O)[C@H]1O,EC50,[5],12 µM
N[C@@H]1C[C@H](N)[C@@]2(CC[C@@H](CNC(=O)[C@@H]3CCCN3)O2)[C@H](O)[C@H]1O,IC50,Bacterial 70S ribosome,156 µM
same,EC50,[5],0.68 µM
N[C@@H]1C[C@H](N)[C@@]2(CC[C@@H](CNC(=O)[C@@H](N)Cc3cnc[nH]3)O2)[C@H](O)[C@H]1O,IC50,Bacterial 70S ribosome,172 µM
same,EC50,[5],1.6 µM
NCCCC[C@H](N)CN[C@@H]1C[C@H](N)[C@@]2(CC[C@H](O)[C@H](O)CO2)[C@H](O)[C@H]1O,IC50,Bacterial 70S ribosome,100 µM
same,EC50,[5],0.09 µM
same,MIC,Escherichia coli [1],> 118 µg/mL
same,MIC,"Pseudomonas aeruginosa; ATCC 27853, 18 h",> 118 µg/mL
same,MIC,"Escherichia coli [2]; ATCC 25922, 18 h",236 µg/mL
same,MIC,"Staphylococcus aureus; ATCC 29213, 18 h",3.8 µg/mL
same,MIC,Escherichia coli [3],118 µg/mL
same,MIC,Escherichia coli [4],118 µg/mL
NCC[C@H](O)C(=O)N[C@@H]1C[C@H](N)[C@@]2(C[C@H](O)[C@H](O)CO2)[C@H](O)[C@H]1O,IC50,Bacterial 70S ribosome,> 600 µM
same,EC50,[5],12.6 µM
NC[C@H]1O[C@H](O[C@H]2[C@H](O)[C@@H](O)[C@H](N)C[C@@H]2N)[C@H](N)[C@@H](O)[C@@H]1O [NEAMINE],EC50,[5],9.5 µM
same,MIC,Escherichia coli [1],150 µg/mL
same,MIC,"Pseudomonas aeruginosa; ATCC 27853, 18 h",73 µg/mL
same,MIC,"Escherichia coli [2]; ATCC 25922, 18 h",14 µg/mL
same,MIC,"Staphylococcus aureus; ATCC 29213, 18 h",5 µg/mL
same,MIC,Escherichia coli [3],300 µg/mL
same,MIC,Escherichia coli [4],150 µg/mL
NCCCC[C@H](N)C(=O)N[C@@H]1C[C@H](N)[C@@]2(CC[C@@H](O)[C@@H](O)CO2)[C@H](O)[C@H]1O,IC50,Bacterial 70S ribosome,> 600 µM
same,EC50,[5],1.2 µM
N[C@@H]1C[C@H](N)[C@@]2(CC[C@@H](CNC(=O)[C@@H](N)Cc3ccc(O)cc3)O2)[C@H](O)[C@H]1O,IC50,Bacterial 70S ribosome,> 600 µM
NCCCC[C@H](N)CN[C@@H]1C[C@H](N)[C@@]2(CC[C@@H](O)[C@@H](O)CO2)[C@H](O)[C@H]1O,IC50,Bacterial 70S ribosome,> 600 µM
same,EC50,[5],0.65 µM
same,MIC,Escherichia coli [1],> 118 µg/mL
same,MIC,"Pseudomonas aeruginosa; ATCC 27853, 18 h",> 118 µg/mL
same,MIC,"Escherichia coli [2]; ATCC 25922, 18 h",236 µg/mL
same,MIC,"Staphylococcus aureus; ATCC 29213, 18 h",14.7 µg/mL
same,MIC,Escherichia coli [3],> 118 µg/mL
same,MIC,Escherichia coli [4],118 µg/mL
N[C@@H]1C[C@H](N)[C@@]2(CC[C@@H](CNC(=O)[C@@H](N)Cc3c[nH]c4ccccc34)O2)[C@H](O)[C@H]1O,IC50,Bacterial 70S ribosome,149 µM
same,MIC,Escherichia coli [1],> 131 µg/mL
same,MIC,"Pseudomonas aeruginosa; ATCC 27853, 18 h",65 µg/mL
same,MIC,"Escherichia coli [2]; ATCC 25922, 18 h",98 µg/mL
same,MIC,"Staphylococcus aureus; ATCC 29213, 18 h",8.4 µg/mL
same,MIC,Escherichia coli [3],131 µg/mL
same,MIC,Escherichia coli [4],32.5 µg/mL
NCC[C@H](O)C(=O)N[C@@H]1C[C@H](N)[C@@]2(CC[C@@H](O)[C@@H](O)CO2)[C@H](O)[C@H]1O,IC50,Bacterial 70S ribosome,> 600 µM
same,EC50,[5],0.39 µM
N[C@H](CN[C@@H]1C[C@H](N)[C@@]2(CC[C@@H](O)[C@@H](O)CO2)[C@H](O)[C@H]1O)Cc1ccc(O)cc1,IC50,Bacterial 70S ribosome,> 600 µM
NCCCC[C@H](N)C(=O)N[C@@H]1C[C@H](N)[C@@]2(C[C@H](O)[C@H](O)CO2)[C@H](O)[C@H]1O,IC50,Bacterial 70S ribosome,350 µM
same,EC50,[5],0.89 µM
N[C@@H]1C[C@H](N)[C@@]2(C[C@H](O)[C@H](O)CO2)[C@H](O)[C@H]1O,EC50,[5],6.5 µM
N=C(N)NCCC[C@H](N)C(=O)NC[C@@H]1CC[C@@]2(O1)[C@H](O)[C@@H](O)[C@H](N)C[C@@H]2N,IC50,Bacterial 70S ribosome,98 µM
same,EC50,[5],1.5 µM
N[C@@H]1C[C@H](N)[C@@]2(CC[C@@H](O)[C@@H](O)CO2)[C@H](O)[C@H]1O,EC50,[5],141 µM
N[C@H](CN[C@@H]1C[C@H](N)[C@@]2(CC[C@H](O)[C@H](O)CO2)[C@H](O)[C@H]1O)Cc1ccc(O)cc1,IC50,Bacterial 70S ribosome,> 600 µM
same,MIC,Escherichia coli [1],> 129 µg/mL
same,MIC,Pseudomonas aeruginosa,inactive
same,MIC,Escherichia coli [2],inactive
same,MIC,Staphylococcus aureus,inactive
same,MIC,Escherichia coli [3],> 129 µg/mL
same,MIC,Escherichia coli [4],129 µg/mL
